Data published in US20100075960A1 (priority 2006, published 2010).

How the values were obtained:
[1] = test system: HCT116; test: Inhibition of cell proliferation, HCT116; assay type: cell-based; details: Homo sapiens, HCT-116; 72 h treatment; methylene blue or CellTiter-Glo
[2] = test system: COLO205; test: Inhibition of cell proliferation, COLO205; assay type: cell-based; details: Homo sapiens, COLO 205; Colon; 72 h; methylene blue or CellTiter-Glo
Experimental: (§1) II. Inhibition of Cell Proliferation by PLK1 Inhibitors.
(§2) Exponentially growing cell lines of different tumor origins, cultured in appropriate media containing 10% fetal bovine serum at 37° C. in a 5% CO2 incubator were plated in 96 or 384-well plates. Twenty four hours post-plating, cells were treated with different concentrations of test compounds ranging from 20 μM to 0.04 nM. Several wells were left untreated as a control. Seventy two hours post-treatment, cell numbers were determined using different techniques; 100 μl per well of methylene blue (Sigma M9140) (0.5% in 50:50 Ethanol:water), or 10-100 μl per well of CellTiter-Glo (Promega #G7573), depending on well size. For methylene blue staining, stain was incubated at room temperature for 30 minutes before plates were rinsed and dye solubilized in 1% N-lauroyl sarcosine, sodium salt, (Sigma L5125, in PBS). Plates were read on a microplate reader, measuring the OD at 620 nm. For CellTiter-Glo, plates were incubated at room temperature for 15 minutes and the chemiluminescent signal was read on the Victor V or Envison 2100 reader.
(§3) Percent inhibition of cell growth was expressed as percent proliferation relative to 100% proliferation (control). Concentration of test compound that inhibited 50% of cell growth (IC50) was determined by 4 parameter fit of data using XLfit, (value of no cell control was substracted from all samples for background). The data are shown in Table 1 and Table 2 below and represent a compilation of several different experiments each performed using the general parameters outlined above, although minor variations may have been employed in some instances, in Table 1 and Table 2, +=IC50>1 μM; ++=IC50 0.5-1 μM: +++=IC50<0.5 μM.

[3] = test system: HT29; test: Inhibition of cell proliferation, HT29; assay type: cell-based; details: Homo sapiens, HT-29; Colon; 72 h; methylene blue or CellTiter-Glo
Experimental: as §1, §2, §3

[4] = test system: MX-1; test: Inhibition of cell proliferation, MX-1; assay type: cell-based; details: Homo sapiens, MX1; Breast; 72 h; methylene blue or CellTiter-Glo
Experimental: as §1, §2, §3

[5] = test system: SKOV-3; test: Inhibition of cell proliferation, SKOV-3; assay type: cell-based; details: Homo sapiens, SK-OV-3; Ovarian; 72 h; methylene blue or CellTiter-Glo
Experimental: as §1, §2, §3

[6] = test system: P388; test: Inhibition of cell proliferation, P388; assay type: cell-based; details: Mouse leukemia, 72 h, methylene blue or CellTiter-Glo
Experimental: as §1, §2, §3

[7] = test system: A549-L; test: Inhibition of cell proliferation, A549-L; assay type: cell-based; details: lung; 72 h; methylene blue or CellTiter-Glo
Experimental: as §1, §2, §3

[8] = target: T1, PLK1 kinase domain (Homo sapiens, UniProt P53350); test: Assay for inhibition of PLK1 (33P SPA kinase assay); assay type: biochemical; details: 2 nM PLK1 kinase domain, 1 μM ATP, 1 μM substrate peptide; read-out: PLK1 pIC50 (converted)
T1 construct: His-tagged PLK kinase domain (amino acids 21-346 preceded by MKKGHHHHHHD); made in house; host or cells: baculovirus-infected T. ni insect cells
Experimental: I. Assay for Inhibition of PLK1
A. Preparation of 6× N-Terminal His-Tagged PLK Kinase Domain
6× N-terminal His-tagged PLK kinase domain (amino acids 21-346 preceded by MKKGHHHHHHD) SEQ ID: No. 1. was prepared from baculovirus infected T. ni cells under polyhedrin promoter control. All procedures were performed at 4° C. Cells were lysed in 50 mM HEPES, 200 mM NaCl, 50 mM imidazole, 5% glycerol; pH 7.5. The homogenate was centrifuged at 14K rpm in a SLA-1500 rotor for 1 br and the supernatant filtered through a 1.2 micron filter. The supernatant was loaded onto a Nickel chelating Sepharose (Amersham Pharmacia) column and washed with lysis buffer. Protein was eluted using 20%, 30% and 100% buffer B steps where buffer B was 50 mM HEPES, 200 mM NaCl, 300 mM imidazole, 5% glycerol; pH 7.5. Fractions containing PLK were determined by SOS-PAGE. Fractions containing PLK were diluted five-fold with 50 mM HEPES, 1 mM DTT, 5% glycerol; pH 7.5, then loaded on an SP Sepharose (Amersham Pharmacia) column. After washing the column with 50 mM HEPES, 1 mM DTT, 5% glycerol; pH 7.5, PLK was step eluted with 50 mM HEPES, 1 mM DTT, 500 mM NaCl; 5% glycerol; pH 7.5. PLK was concentrated using a 10 kDa molecular weight cutoff membrane and then loaded onto a Superdex 200 gel filtration (Amersham Pharmacia) column equilibrated in 25 mM HEPES, 1 mM DTT, 500 mM NaCl, 5% glycerol; pH 7.5. Fractions containing PLK were determined by SDS-PAGE. PLK was pooled, aliquoted and stored at −80° C. Samples were quality controlled using mass spectrometry, N-terminal sequencing and amino acid analysis.
B. Enzyme Activity ± Inhibitors was Determined as Follows:
All measurements were obtained under conditions where signal production increased linearly with time and enzyme. Test compounds were added to white 384-well assay plates (0.1 μL for 10 μL and some 20 μL assays, 1 μL for some 20 μL assays) at variable known concentrations in 100% DMSO. DMSO (1-5% final, as appropriate) and EDTA (65 mM in reaction) as controls. Reaction Mix was prepared as follows at 22° C.: • 25 mM HEPES, pH 7.2 • 15 mM MgCl2 • 1 μM ATP • 0.05 μCi/well ^33P-γ ATP (10 Ci/mMol) • 1 μM substrate peptide (Biotin-Ahx-SFNDTLDFD) SEQ ID:No. 2. • 0.15 mg/mL BSA • 1 mM DTT • 2 nM PLK1 kinase domain (added last)
Reaction Mix (10 or 20 μL) was quickly added to each well immediately following addition of enzyme via automated liquid handlers and incubated 1-1.5 h at 22° C. […] Plates were sealed with dear plastic seals, spun at 500×g for 1 min or settled overnight, and counted in Packard TopCount for 30 seconds/well (regular SPA) or imaged using a Viewlux imager (LeadSeeker SPA). […]

[9] = test system: LNCaP; test: Inhibition of cell proliferation, LNCaP; assay type: cell-based; details: Homo sapiens, Prostate, 72 h, methylene blue or CellTiter-Glo
Experimental: as §1, §2
(§4) Percent inhibition of cell growth was expressed as percent proliferation relative to 100% proliferation (control). […]

[10] = test system: H1299; test: Inhibition of cell proliferation, H1299; assay type: cell-based; details: Homo sapiens, NCI-H1299; Lung; 72 h; methylene blue or CellTiter-Glo
Experimental: as §1, §2, §4

[11] = test system: Hela; test: Inhibition of cell proliferation, Hela; assay type: cell-based; details: Homo sapiens, Cervical, 72 h, methylene blue or CellTiter-Glo
Experimental: as §1, §2, §4

[12] = test system: HN5; test: Inhibition of cell proliferation, HN5; assay type: cell-based; details: Homo sapiens; Head and neck; Table 2 first HN5 line; 72 h
Experimental: as §1, §2, §3

[13] = test system: MCF7; test: Inhibition of cell proliferation, MCF7; assay type: cell-based; details: Homo sapiens, Breast, 72 h, methylene blue or CellTiter-Glo
Experimental: as §1, §2, §4

[14] = test system: MDA-MB-468; test: Inhibition of cell proliferation, MDA-MB-468; assay type: cell-based; details: Homo sapiens, Breast, 72 h, methylene blue or CellTiter-Glo
Experimental: as §1, §2, §4

[15] = test system: RPMI 8226; test: Inhibition of cell proliferation, RPMI 8226; assay type: cell-based; details: Homo sapiens, leukemia, 72 h, methylene blue or CellTiter-Glo
Experimental: as §1, §2, §4

T1 sequence (P53350 21-346): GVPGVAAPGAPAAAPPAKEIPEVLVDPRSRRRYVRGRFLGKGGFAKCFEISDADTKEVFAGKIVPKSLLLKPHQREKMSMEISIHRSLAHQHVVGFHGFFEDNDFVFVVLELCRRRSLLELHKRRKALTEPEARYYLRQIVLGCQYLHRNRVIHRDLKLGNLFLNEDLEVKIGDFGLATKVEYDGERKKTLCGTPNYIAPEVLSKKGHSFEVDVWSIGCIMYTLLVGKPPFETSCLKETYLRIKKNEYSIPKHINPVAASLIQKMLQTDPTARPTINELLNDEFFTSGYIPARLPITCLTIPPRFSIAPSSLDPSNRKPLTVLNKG

Structure (SMILES) | IC50 [1] [nM] | IC50 [2] [nM] | IC50 [3] [nM] | IC50 [5] [nM] | IC50 [6] [nM] | IC50 [8] [nM] | IC50 [4] [nM] | also measured
C[C@@H](Oc1cc(-n2cnc3ccc(S(C)(=O)=O)cc32)sc1C(N)=O)c1cccc(OC2CCNCC2)c1Cl [Example 60, 3-({(1R)-1-[2-chloro-3-(4-piperidinyloxy)phenyl]ethyl}oxy)-5-[6-(methylsulfonyl)-1H-benzimidazol-1-yl]-2-thiophenecarboxamide] | > 1000 | – | – | – | – | < 100 | – | –
C[C@@H](Oc1cc(-n2cnc3ccc(CS(C)(=O)=O)cc32)sc1C(N)=O)c1cccc(OC[C@H]2CCCN2C)c1Cl [Example 58, 3-({(1R)-1-[2-chloro-3-({[(2R)-1-methyl-2-pyrrolidinyl]methyl}oxy)phenyl]ethyl}oxy)-5-{6-[(methylsulfonyl)methyl]-1H-benzimidazol-1-yl}-2-thiophenecarboxamide] | > 1000 | – | – | – | – | < 100 | – | –
C[C@@H](Oc1cc(-n2cnc3cc(S(C)(=O)=O)ccc32)sc1C(N)=O)c1cccc(OC2CCNCC2)c1Cl [Example 59, 3-({(1R)-1-[2-chloro-3-(4-piperidinyloxy)phenyl]ethyl}oxy)-5-[5-(methylsulfonyl)-1H-benzimidazol-1-yl]-2-thiophenecarboxamide] | > 1000 | – | – | – | – | < 100 | – | –
CC(Oc1cc(-n2cnc3cc(-c4cnn(C)c4)ccc32)sc1C(N)=O)c1cc(OC2CCN(C)CC2)ccn1 (stereo not shown) [Example 86, 3-[(1-{4-[(1-Methyl-4-piperidinyl)oxy]-2-pyridinyl}ethyl)oxy]-5-[5-(1-methyl-1H-pyrazol-4-yl)-1H-benzimidazol-1-yl]-2-thiophenecarboxamide] | > 1000 | – | – | – | – | < 100 | – | –

Compounds with a lower IC50 [1], results first:

IC50 [1] [nM] | IC50 [2] [nM] | IC50 [3] [nM] | IC50 [5] [nM] | IC50 [6] [nM] | IC50 [8] [nM] | Structure (SMILES) | IC50 [4] [nM] | also measured
< 500 | < 500 | < 500 | < 500 | < 500 | – | C[C@@H](Oc1cc(-n2cnc3cc(F)c(F)cc32)sc1C(N)=O)c1cccc(OC2CCN(C)CC2)c1Cl [Example 66, 3-[((1R)-1-(2-chloro-3-[(1-methyl-4-piperidinyl)oxy]phenyl}ethyl)-oxy]-5-(5,6-difluoro-1H-benzimidazol-1-yl)-2-thiophenecarboxamide] | < 500 | –
< 500 | < 500 | < 500 | < 500 | < 500 | – | C[C@@H](Oc1cc(-n2cnc3cc(-c4cnn(C)c4)ccc32)sc1C(N)=O)c1cccc(OC2CCNCC2)c1Cl [Example 47, 3-({(1R)-1-[2-Chloro-3-(4-piperidinyloxy)phenyl]ethyl}oxy)-5-[5-(1-methyl-1H-pyrazol-4-yl)-1H-benzimidazol-1-yl]-2-thiophenecarboxamide] | < 500 | IC50 [7]: < 500 nM
< 500 | < 500 | < 500 | < 500 | – | – | C[C@@H](Oc1cc(-n2cnc3cc(-c4cnn(C)c4)ccc32)sc1C(N)=O)c1cccc(OC2CCN(CCS(C)(=O)=O)CC2)c1Cl [Example 31, 3-({(1R)-1-[2-Chloro-3-({1-[2-(methylsulfonyl)ethyl]-4-piperidinyl}oxy)phenyl]ethyl}oxy)-5-[5-(1-methyl-1H-pyrazol-4-yl)-1H-benzimidazol-1-yl]-2-thiophenecarboxamide] | < 500 | IC50 [9]: 500 to 1000 nM; IC50 [10]: < 500 nM; IC50 [11]: < 500 nM; IC50 [12]: < 500 nM; IC50 [13]: < 500 nM; IC50 [14]: < 500 nM; IC50 [15]: < 500 nM
< 500 | < 500 | < 500 | < 500 | < 500 | – | C[C@@H](Oc1cc(-n2cnc3cc(-c4cnn(C)c4)ccc32)sc1C(N)=O)c1cccc(OCC2CCN(C)CC2)c1Cl [Example 45, 3-{[(1R)-1-(2-Chloro-3-{[(1-methyl-4-piperidinyl)methyl]oxy}phenyl)ethyl]oxy}-5-[5-(1-methyl-1H-pyrazol-4-yl)-1H-benzimidazol-1-yl]-2-thiophenecarboxamide] | < 500 | IC50 [7]: < 500 nM
